Results from patent US7452908B2, “Amide derivatives” (Banyu Pharmaceutical Co., Ltd., priority 1999, dated 2008).

What was measured:
[1] = target: T1, human m1 muscarinic acetylcholine receptor expressed in CHO cells (Homo sapiens, UniProt P11229); assay: Inhibition of [3H]-N-methylscopolamine binding to muscarinic m1 receptor; conditions: 0.2 nM [3H]-N-methylscopolamine
T1 construct: purchased Receptor Biology, Inc; host or cells: CHO cells
T1 sequence (P11229 1-460): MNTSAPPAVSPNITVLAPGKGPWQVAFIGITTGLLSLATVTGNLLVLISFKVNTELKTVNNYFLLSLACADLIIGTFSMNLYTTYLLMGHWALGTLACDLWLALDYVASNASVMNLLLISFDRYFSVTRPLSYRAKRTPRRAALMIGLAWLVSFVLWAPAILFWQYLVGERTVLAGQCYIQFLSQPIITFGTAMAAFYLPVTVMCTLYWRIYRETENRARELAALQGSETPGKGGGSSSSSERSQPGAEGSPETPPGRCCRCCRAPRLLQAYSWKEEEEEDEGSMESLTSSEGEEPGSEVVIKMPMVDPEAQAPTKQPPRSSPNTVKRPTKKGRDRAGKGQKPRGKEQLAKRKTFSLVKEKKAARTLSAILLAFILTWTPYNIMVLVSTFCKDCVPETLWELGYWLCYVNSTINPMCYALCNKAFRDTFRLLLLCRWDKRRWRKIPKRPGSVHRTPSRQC
Protocol: (§1) These tests were performed according to a modification of the method of Hargreaves, et al. (Br. J. Pharmacol. 107: 494-501, 1992). Namely, muscarinic acetylcholine receptors of human m1, m2, m3, m4 and m5 expressed in CHO cells (Receptor Biology, Inc.) were incubated with 0.2 nM [^3H]-N-methylscopolamine (82Ci/mmol, New England Nuclear, Inc.) and a test compound to be tested in 0.5 ml of 50 mM Tris-HCl, 10 mM MgCl2, 1 mM EDTA solution (pH 7.4) for 120 minutes at room temperature (about 20-25° C.), followed by suction filtration over a glass filter (UniFilter plate-GF/C; Packard). Then the filter was washed four times with 1 ml of ice-cold Tris-HCl buffer and dried at 50° C. for an hour. After adding a scintillator (Microscinti 0; Packard), the radioactivity of [^3H]-N-methylscopolamine binding to the filter was counted with a microplate scintillation counter (TopCount™; Packard). Non-specific receptor binding of [^3H]-N-methylscopolamine was measured by adding 1 μM N-methylscopolamine.

[2] = target: T2, human m3 muscarinic acetylcholine receptor expressed in CHO cells (Homo sapiens, UniProt P20309); assay: Inhibition of [3H]-N-methylscopolamine binding to muscarinic m3 receptor; conditions: for Ki: human m3 in CHO cells, 0.2 nM [3H]-N-methylscopolamine; for Selectivity m1/m3: ratio of Ki m1 to Ki m3; for Selectivity m2/m3: ratio of Ki m2 to Ki m3; for Selectivity m4/m3: ratio of Ki m4 to Ki m3; for Selectivity m5/m3: ratio of Ki m5 to Ki m3
T2 construct: purchased Receptor Biology, Inc; host or cells: CHO cells
T2 sequence (P20309 whole entry): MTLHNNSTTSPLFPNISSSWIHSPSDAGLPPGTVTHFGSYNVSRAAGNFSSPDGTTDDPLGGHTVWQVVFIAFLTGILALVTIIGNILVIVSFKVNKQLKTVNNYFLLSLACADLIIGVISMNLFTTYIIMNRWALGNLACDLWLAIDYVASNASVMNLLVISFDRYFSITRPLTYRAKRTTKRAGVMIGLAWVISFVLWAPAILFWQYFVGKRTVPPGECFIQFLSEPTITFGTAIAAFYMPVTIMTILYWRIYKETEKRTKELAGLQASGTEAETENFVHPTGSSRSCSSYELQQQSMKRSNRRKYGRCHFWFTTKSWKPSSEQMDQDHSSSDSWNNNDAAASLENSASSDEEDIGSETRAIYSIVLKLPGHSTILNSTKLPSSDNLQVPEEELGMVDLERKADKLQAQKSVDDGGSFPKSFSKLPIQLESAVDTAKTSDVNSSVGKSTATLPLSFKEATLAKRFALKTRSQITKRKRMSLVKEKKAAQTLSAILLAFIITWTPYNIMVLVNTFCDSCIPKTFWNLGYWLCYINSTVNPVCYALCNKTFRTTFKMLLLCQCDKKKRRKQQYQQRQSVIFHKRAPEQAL
Protocol: as §1

[3] = target: T3, human m4 muscarinic acetylcholine receptor expressed in CHO cells (Homo sapiens, UniProt P08173); assay: Inhibition of [3H]-N-methylscopolamine binding to muscarinic m4 receptor; conditions: 0.2 nM [3H]-N-methylscopolamine
T3 construct: purchased Receptor Biology, Inc; host or cells: CHO cells
T3 sequence (P08173 1-479): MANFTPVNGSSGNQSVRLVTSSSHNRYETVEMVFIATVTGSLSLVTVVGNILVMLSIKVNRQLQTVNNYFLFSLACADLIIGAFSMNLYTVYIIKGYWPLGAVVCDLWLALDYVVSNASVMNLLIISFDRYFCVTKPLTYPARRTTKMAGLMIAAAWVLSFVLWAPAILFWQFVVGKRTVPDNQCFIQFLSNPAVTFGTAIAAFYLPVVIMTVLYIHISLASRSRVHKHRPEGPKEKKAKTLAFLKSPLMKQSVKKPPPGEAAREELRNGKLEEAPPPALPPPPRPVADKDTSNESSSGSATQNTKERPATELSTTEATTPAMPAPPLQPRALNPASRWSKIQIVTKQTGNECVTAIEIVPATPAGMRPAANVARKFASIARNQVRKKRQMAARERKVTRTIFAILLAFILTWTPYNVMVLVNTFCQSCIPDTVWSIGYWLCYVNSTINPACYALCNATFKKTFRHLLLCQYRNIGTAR
Protocol: as §1

[4] = target: T4, airway M3 receptor in isolated rat trachea (Rattus norvegicus, UniProt P08483); assay: Antagonism to the airway M3 receptor in isolated rat trachea (carbachol-induced contraction); type: cell-based; conditions: for Kb: isolated rat trachea, shift of carbachol dose-response curve; for Selectivity M2/M3: ratio of KB right atrium M2 to KB trachea M3
T4 construct: from tissue; host or cells: trachea of male SD rats
T4 sequence (P08483 whole entry): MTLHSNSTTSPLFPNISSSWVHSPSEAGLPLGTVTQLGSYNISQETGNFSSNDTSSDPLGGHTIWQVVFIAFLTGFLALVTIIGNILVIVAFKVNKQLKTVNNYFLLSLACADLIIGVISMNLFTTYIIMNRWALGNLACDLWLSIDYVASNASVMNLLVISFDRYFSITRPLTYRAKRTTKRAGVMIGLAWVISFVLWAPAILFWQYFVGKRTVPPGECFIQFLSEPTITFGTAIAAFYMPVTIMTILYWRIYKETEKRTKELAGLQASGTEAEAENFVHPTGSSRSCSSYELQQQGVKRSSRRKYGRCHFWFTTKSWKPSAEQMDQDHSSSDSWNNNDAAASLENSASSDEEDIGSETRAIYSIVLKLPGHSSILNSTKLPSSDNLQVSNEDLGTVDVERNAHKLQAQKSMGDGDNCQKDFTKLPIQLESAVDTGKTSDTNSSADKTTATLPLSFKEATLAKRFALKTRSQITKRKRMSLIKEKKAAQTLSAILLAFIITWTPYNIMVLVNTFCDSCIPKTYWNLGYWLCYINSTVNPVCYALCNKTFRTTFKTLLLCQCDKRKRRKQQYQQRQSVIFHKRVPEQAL
Protocol: The test was performed according to a conventional method. Male SD strain rats (weighing 300-500 g) were killed by exsanguination, and from each of them the trachea was isolated. Annular segments (2 mm wide) were cut out from the trachea and cut transversely at the anterior cartilage part to make open ring preparation. Each preparation was suspended in a Magnus tube filled with 5 ml of Krebs-Henseleit solution (gassed with 95% O2-5% CO2 and kept at 32° C.) with an initial tension of 1.0 g and a resting tension of 0.6 g. The tension of the preparation was recorded isometrically. After being equilibrated for an hour, the preparation was made to contract twice by treatment with 10^−4 M carbachol, and the second contraction induced by carbachol was used as the reference contraction. After washing the preparation with fresh solution to restore it to the base line, a test compound was administered thereto (or no treatment was given). Ten minutes later, carbachol (10^−8 to 10^−3 M) was cumulatively administered in three-fold increasing doses to obtain a dose-response curve. The dose-responsecurve was plotted by expressing responses as percentages based on the reference contraction of the preparation as 100%. The antagonistic potency (KB value) of the test compound was determined from the degree of shift of the dose-responsecurve attributable to the treatment with the test compound.

Structure (SMILES)	Ki [1]	Ki [2]	Selectivity m1/m3 [2]	Selectivity m2/m3 [2]	Selectivity m4/m3 [2]	Selectivity m5/m3 [2]	Ki [3]	Kb [4]	Selectivity M2/M3 [4]
O=C(CCNC(=O)CNC(=O)CC(c1ccccc1)(c1ccccc1)c1ccccc1)NC[C@H]1CCCN(CC2CCCCC2)C1 [Example 12, N-{2-(3-{((3R)-1-cyclohexylmethyl-3-piperidyl)methyl}amino-3-oxopropyl)amino-2-oxoethyl}-3,3,3-triphenyloropanamide]	140 nM	0.38 nM	370 times	89 times	47 times	84 times	18 nM	2.3 nM	70 times
CC[N+]1(CC)CCC[C@H](CNC(=O)[C@H]2CCCN2C(=O)[C@@H]2C[C@@H](O)CN2C(=O)CC(c2ccccc2)(c2ccccc2)c2ccccc2)C1.[Cl-] [Example 133, (3R)-1,1-diethyl-3-({({(2R)-1-({(2S,4R)-4-hydroxy-1-(3,3,3-triphenylpropanoyl)-2-pyrrolidinyl}carbonyl)-2-pyrrolidinyl}carbonyl)amino}methyl)piperidinium chloride]	> 2500 nM	3.2 nM	>780 times	250 times	44 times	500 times	140 nM	0.71 nM	58 times
